Laboratory results published in PMC10837402, “Unnatural amino acid substitutions to improve in vivo stability and tumor uptake of ^68Ga-labeled GRPR-targeted TacBOMB2 derivatives for cancer imaging with positron emission tomography” (EJNMMI Radiopharmacy and Chemistry, 2024).
Values joined by “and” are separate entries in the source; they are usually repeats but may differ in a detail not shown here. Equal values may be shown once. Starred links: 1 amine or outer side, 2 acyl side, 3 side chain; linkers in the order of their positions; H or OH if unused. Non-standard residues stand in square brackets, D forms with d. Residues, ends and D or L forms follow the SMILES beside them. *: point of attachment. DOTA = O=C(O)CN1CCN(CC(=O)O)CCN(CC(=O)*)CCN(CC(=O)O)CC1; NMeH = CN[C@@H](Cc1c[nH]cn1)C(=O)O; X1 = O=C(CN1CCC(N[*:1])CC1)[*:2]; Tle = CC(C)(C)[C@H](N)C(=O)O; hSer = N[C@@H](CCO)C(=O)O; Thz = O=C(O)[C@@H]1CSCN1; Abu = CC[C@H](N)C(=O)O; Aib = CC(C)(N)C(=O)O

Assays:
GRPR [1] = target: T1, GRPR (Homo sapiens, UniProt P30550); experiment: In vitro competition binding assay using PC-3 cells and [^125I-Tyr^4]Bombesin as the radioligand; details: PC-3 cells, mean ± SD, n = 3, read-out: GRPR binding affinity (Ki)
T1 construct: generated using GRPR-expressing PC-3 cells; endogenous in cells; host or cells: PC-3 cells
Experimental: [2022], [2023]; Bratanovic et al. [2022]). The assays were conducted in triplicate with varied concentrations (10 μM to 1 pM) of tested ligands. […] The growth medium was replaced with 400 μL of reaction medium (RPMI 1640 containing 2 mg/mL BSA, and 20 mM HEPES), then the plates were incubated at 37 °C for 60 min. […] Data were analyzed using nonlinear regression with GraphPad (San Diego, CA, USA) Prism 8 software.

GRPR [2] = target: T1, GRPR; experiment: Fluorometric calcium release assay in PC-3 cells; assay type: cell-based; details: 50 nM ligand
Experimental: The growth medium was removed and replaced with a loading buffer containing a calcium-sensitive dye (FLIPR Calcium 6 assay kit from Molecular Devices, San Jose, CA, USA). After incubated at 37 °C for 30 min, the plates were placed in a FlexStation 3 microplate reader (Molecular Devices). Tested ligands (50 nM) or DPBS (negative control) were added to the cells and the fluorescent signals were acquired for 2 min. Agonistic/antagonistic properties of the tested ligands were determined based on the relative fluorescent unit (RFU = max – min) of their generated fluorescent signals.

T1 sequence (P30550 whole entry): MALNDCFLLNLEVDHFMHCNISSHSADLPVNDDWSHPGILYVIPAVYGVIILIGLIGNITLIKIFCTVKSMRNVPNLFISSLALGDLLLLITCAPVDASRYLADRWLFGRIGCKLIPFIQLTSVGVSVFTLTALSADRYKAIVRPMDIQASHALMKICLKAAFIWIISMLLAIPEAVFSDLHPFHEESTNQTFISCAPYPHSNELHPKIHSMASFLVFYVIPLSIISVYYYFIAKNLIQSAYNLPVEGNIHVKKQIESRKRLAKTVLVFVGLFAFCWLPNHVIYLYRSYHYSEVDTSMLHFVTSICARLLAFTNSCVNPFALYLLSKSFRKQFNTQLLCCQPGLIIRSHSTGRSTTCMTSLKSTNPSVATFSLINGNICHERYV

Q: `CC[C@H](NC(=O)[C@H](C)NC(=O)[C@H](Cc1c[nH]c2ccccc12)NC(=O)[C@H](CCC(N)=O)NC(=O)[C@H](N)Cc1ccccc1)C(=O)NCC(=O)N[C@@H](Cc1c[nH]cn1)C(=O)N[C@@H](CC(C)C)C(=O)N1CSC[C@H]1C(N)=O` [LW01083, D-Phe-Gln-Trp-Ala-2-Abu-Gly-His-Leu-Thz-NH2] was tested. Which Ki (GRPR [1]) did it give?
A: > 0.15 µM and 0.406 µM

Q: With “[D-Phe^6,Leu-NHEt^13,des-Met^14]Bombesin(6–14) [reference compound]” as the compound, how does the “Ca^2+ efflux (relative fluorescence units, RFU = max – min)” value (GRPR [2]) read?
A: 38.2 ± 7.20 RFUs

Q: With bombesin [reference compound] as the compound, how does the “Ca^2+ efflux (relative fluorescence units, RFU = max – min)” value (GRPR [2]) read?
A: 450 ± 136 RFUs

Q: Which Ki (GRPR [1]) does the source give for `CC(C)C[C@H](NC(=O)[C@H](Cc1c[nH]cn1)NC(=O)CNC(=O)[C@@H](NC(=O)[C@H](C)NC(=O)[C@H](Cc1c[nH]c2ccccc12)NC(=O)[C@H](CCO)NC(=O)[C@H](N)Cc1ccccc1)C(C)C)C(=O)N1CSC[C@H]1C(N)=O` [LW02030, D-Phe-Hse-Trp-Ala-Val-Gly-His-Leu-Thz-NH2] (H-[dF][hSer]WAVGHL[Thz]-NH2) here?
A: > 0.15 µM and 0.196 µM

Q: For `CC(C)C[C@H](NC(=O)[C@H](Cc1c[nH]cn1)NC(=O)CNC(=O)[C@@H](NC(=O)[C@H](C)NC(=O)[C@H](Cc1c[nH]c2ccccc12)NC(=O)[C@H](CCC(N)=O)NC(=O)[C@H](N)Cc1ccccc1)C1CCC1)C(=O)N1CSC[C@H]1C(N)=O` [LW02019, D-Phe-Gln-Trp-Ala-cyclobutaneacetic acid-Gly-His-Leu-Thz-NH2], which Ki (GRPR [1]) is on record?
A: 0.0357 ± 0.0274 µM

Q: With `CC(C)=C(NC(=O)[C@H](C)NC(=O)[C@H](Cc1c[nH]c2ccccc12)NC(=O)[C@H](CCC(N)=O)NC(=O)[C@H](N)Cc1ccccc1)C(=O)NCC(=O)N[C@@H](Cc1c[nH]cn1)C(=O)N[C@@H](CC(C)C)C(=O)N1CSC[C@H]1C(N)=O` [LW02011, D-Phe-Gln-Trp-Ala-2,3-dehydro-Val-Gly-His-Leu-Thz-NH2] as the compound, how does the Ki (GRPR [1]) read?
A: > 10 µM

Q: For `CC(C)C[C@H](NC(=O)[C@H](Cc1c[nH]cn1)NC(=O)CNC(=O)[C@@H](NC(=O)[C@H](C)NC(=O)[C@H](Cc1c[nH]c2cc(Cl)ccc12)NC(=O)[C@H](CCC(N)=O)NC(=O)[C@H](N)Cc1ccccc1)C(C)C)C(=O)N1CSC[C@H]1C(N)=O` [LW01137, D-Phe-Gln-6-Cl-Trp-Ala-Val-Gly-His-Leu-Thz-NH2], which Ki (GRPR [1]) is on record?
A: > 0.15 µM and 0.829 µM

Q: How did the “Ca^2+ efflux (relative fluorescence units, RFU = max – min)” value (GRPR [2]) turn out when `Cc1ccc2[nH]cc(C[C@H](NC(=O)[C@H](CCC(N)=O)NC(=O)[C@@H](Cc3ccccc3)NC(=O)CN3CCC(NC(=O)CN4CCN(CC(=O)O)CCN(CC(=O)O)CCN(CC(=O)O)CC4)CC3)C(=O)N[C@@H](C)C(=O)N[C@H](C(=O)NCC(=O)N[C@@H](Cc3c[nH]cn3)C(=O)N[C@@H](CC(C)C)C(=O)N3CSC[C@H]3C(N)=O)C(C)C)c2c1` [Ga-LW02023, Ga-DOTA-Pip-D-Phe-Gln-5-Me-Trp-Ala-Val-Gly-His-Leu-Thz-NH2] was run?
A: 312 ± 45.9 RFUs

Q: How did the “Ca^2+ efflux (relative fluorescence units, RFU = max – min)” value (GRPR [2]) turn out when `CC(C)C[C@H](NC(=O)[C@H](Cc1c[nH]cn1)N(C)C(=O)CNC(=O)[C@@H](NC(=O)[C@H](C)NC(=O)[C@H](Cc1c[nH]c2ccccc12)NC(=O)[C@H](CCC(N)=O)NC(=O)[C@@H](Cc1ccccc1)NC(=O)CN1CCC(NC(=O)CN2CCN(CC(=O)O)CCN(CC(=O)O)CCN(CC(=O)O)CC2)CC1)C(C)(C)C)C(=O)N1CSC[C@H]1C(N)=O` [Ga-LW01110, Ga-DOTA-Pip-D-Phe-Gln-Trp-Ala-Tle-Gly-NMe-His-Leu-Thz-NH2] was run?
A: 521 ± 43.7 RFUs

Q: Which “Ca^2+ efflux (relative fluorescence units, RFU = max – min)” value (GRPR [2]) does the source give for “Ga-DOTA-Pip-D-Phe-Gln-7-F-Trp-Ala-Val-Gly-His-Leu-Thz-NH2 [Ga-LW02021]” here?
A: 178 ± 53.7 RFUs

Q: How did the “Ca^2+ efflux (relative fluorescence units, RFU = max – min)” value (GRPR [2]) turn out when `CC(C)C[C@H](NC(=O)[C@H](Cc1c[nH]cn1)N(C)C(=O)CNC(=O)[C@@H](NC(=O)[C@H](C)NC(=O)[C@H](Cc1c[nH]c2c(F)cccc12)NC(=O)[C@H](CCC(N)=O)NC(=O)[C@@H](Cc1ccccc1)NC(=O)CN1CCC(NC(=O)CN2CCN(CC(=O)O)CCN(CC(=O)O)CCN(CC(=O)O)CC2)CC1)C(C)(C)C)C(=O)N1CSC[C@H]1C(N)=O` [Ga-LW02040, Ga-DOTA-Pip-D-Phe-Gln-7-F-Trp-Ala-Tle-Gly-NMe-His-Leu-Thz-NH2] was run?
A: 242 ± 44.1 RFUs

Q: Which Ki (GRPR [1]) does the source give for `CC[C@H](NC(=O)[C@H](Cc1c[nH]c2ccccc12)NC(=O)[C@H](CCC(N)=O)NC(=O)[C@H](N)Cc1ccccc1)C(=O)N[C@H](C(=O)NCC(=O)N[C@@H](Cc1c[nH]cn1)C(=O)N[C@@H](CC(C)C)C(=O)N1CSC[C@H]1C(N)=O)C(C)C` [LW01078, D-Phe-Gln-Trp-2-Abu-Val-Gly-His-Leu-Thz-NH2] (H-[dF]QW[Abu]VGHL[Thz]-NH2) here?
A: 0.0272 ± 0.00862 µM

Q: How did the Ki (GRPR [1]) turn out when `CC(C)C[C@H](NC(=O)[C@H](Cc1c[nH]cn1)NC(=O)CNC(=O)[C@@H](NC(=O)[C@H](C)NC(=O)[C@H](Cc1c[nH]c2ncccc12)NC(=O)[C@H](CCC(N)=O)NC(=O)[C@H](N)Cc1ccccc1)C(C)C)C(=O)N1CSC[C@H]1C(N)=O` [LW02013, D-Phe-Gln-7-Aza-Trp-Ala-Val-Gly-His-Leu-Thz-NH2] was run?
A: > 0.15 µM

Q: For `Cc1ccc2c(C[C@H](NC(=O)[C@H](CCC(N)=O)NC(=O)[C@H](N)Cc3ccccc3)C(=O)N[C@@H](C)C(=O)N[C@H](C(=O)NCC(=O)N[C@@H](Cc3c[nH]cn3)C(=O)N[C@@H](CC(C)C)C(=O)N3CSC[C@H]3C(N)=O)C(C)C)c[nH]c2c1` [LW01171, D-Phe-Gln-6-Me-Trp-Ala-Val-Gly-His-Leu-Thz-NH2], which Ki (GRPR [1]) is on record?
A: > 0.15 µM and 1.45 µM

Q: For `CC(C)C[C@H](NC(=O)[C@H](Cc1c[nH]cn1)NC(=O)CNC(=O)[C@@H](NC(=O)[C@H](C)NC(=O)[C@H](Cc1c[nH]c2ccccc12)NC(=O)[C@H](CCC(N)=O)NC(=O)[C@@H](Cc1ccccc1)NC(=O)CN1CCC(NC(=O)CN2CCN(CC(=O)O)CCN(CC(=O)O)CCN(CC(=O)O)CC2)CC1)C(C)(C)C)C(=O)N1CSC[C@H]1C(N)=O` [Ga-LW01108, Ga-DOTA-Pip-D-Phe-Gln-Trp-Ala-Tle-Gly-His-Leu-Thz-NH2], which “Ca^2+ efflux (relative fluorescence units, RFU = max – min)” value (GRPR [2]) is on record?
A: 549 ± 46.7 RFUs

Q: How did the “Ca^2+ efflux (relative fluorescence units, RFU = max – min)” value (GRPR [2]) turn out when `Cc1[nH]c2ccccc2c1C[C@H](NC(=O)[C@H](CCC(N)=O)NC(=O)[C@@H](Cc1ccccc1)NC(=O)CN1CCC(NC(=O)CN2CCN(CC(=O)O)CCN(CC(=O)O)CCN(CC(=O)O)CC2)CC1)C(=O)N[C@@H](C)C(=O)N[C@H](C(=O)NCC(=O)N[C@@H](Cc1c[nH]cn1)C(=O)N[C@@H](CC(C)C)C(=O)N1CSC[C@H]1C(N)=O)C(C)C` [Ga-LW02025, Ga-DOTA-Pip-D-Phe-Gln-2-Me-Trp-Ala-Val-Gly-His-Leu-Thz-NH2] was run?
A: 197 ± 50.3 RFUs

Q: Which Ki (GRPR [1]) does the source give for `CC(C)C[C@H](NC(=O)[C@H](Cc1c[nH]cn1)NC(=O)CNC(=O)[C@@H](NC(=O)[C@H](C)NC(=O)[C@H](Cc1c[nH]c2ccc(O)cc12)NC(=O)[C@H](CCC(N)=O)NC(=O)[C@H](N)Cc1ccccc1)C(C)C)C(=O)N1CSC[C@H]1C(N)=O` [LW01173, D-Phe-Gln-5-OH-Trp-Ala-Val-Gly-His-Leu-Thz-NH2] here?
A: > 0.15 µM and 2.03 µM

Q: `CC(C)C[C@H](NC(=O)[C@H](Cc1c[nH]cn1)N(C)C(=O)CNC(=O)[C@@H](NC(=O)[C@H](C)NC(=O)[C@H](Cc1c[nH]c2ccccc12)NC(=O)[C@H](Cc1c[nH]cn1)NC(=O)[C@@H](Cc1ccccc1)NC(=O)CN1CCC(NC(=O)CN2CCN(CC(=O)O)CCN(CC(=O)O)CCN(CC(=O)O)CC2)CC1)C(C)(C)C)C(=O)N1CSC[C@H]1C(N)=O` [Ga-LW01142, Ga-DOTA-Pip-D-Phe-His-Trp-Ala-Tle-Gly-NMe-His-Leu-Thz-NH2] ({DOTA}-[X1][dF]HWA[Tle]G[NMeH]L[Thz]-NH2) was tested. Which “Ca^2+ efflux (relative fluorescence units, RFU = max – min)” value (GRPR [2]) did it give?
A: 559 ± 96.2 RFUs

Q: With `CC(C)C[C@H](NC(=O)[C@H](Cc1c[nH]cn1)NC(=O)CNC(=O)[C@@H](NC(=O)[C@H](C)NC(=O)[C@H]1Cc2c([nH]c3ccccc23)CN1C(=O)[C@H](CCC(N)=O)NC(=O)[C@H](N)Cc1ccccc1)C(C)C)C(=O)N1CSC[C@H]1C(N)=O` [LW01191, D-Phe-Gln-D-Tpi-Ala-Val-Gly-His-Leu-Thz-NH2] as the compound, how does the Ki (GRPR [1]) read?
A: > 10 µM

Q: With `Nc1ncnc2c1ncn2[C@@H]1O[C@H](COP(=O)(O)OP(=O)(O)OP(=O)(O)O)[C@@H](O)[C@H]1O` [ATP, reference compound] as the compound, how does the “Ca^2+ efflux (relative fluorescence units, RFU = max – min)” value (GRPR [2]) read?
A: 253 ± 46.5 RFUs

Q: How did the Ki (GRPR [1]) turn out when `CC(C)C[C@H](NC(=O)[C@H](Cc1c[nH]cn1)NC(=O)CNC(=O)[C@@H](NC(=O)C(C)(C)NC(=O)[C@H](Cc1c[nH]c2ccccc12)NC(=O)[C@H](CCC(N)=O)NC(=O)[C@H](N)Cc1ccccc1)C(C)C)C(=O)N1CSC[C@H]1C(N)=O` [LW01075, D-Phe-Gln-Trp-Aib-Val-Gly-His-Leu-Thz-NH2] (H-[dF]QW[Aib]VGHL[Thz]-NH2) was run?
A: > 0.15 µM and 2.41 µM

Q: Which “Ca^2+ efflux (relative fluorescence units, RFU = max – min)” value (GRPR [2]) does the source give for “Ga-DOTA-Pip-D-Phe-Gln-Trp-Ala-Val-Gly-NMe-His-Leu-Thz-NH2 [Ga-LW01107]” here?
A: 1,004 ± 32.0 RFUs
